Key:
Mia Paca-2 cells = test: Histone H3 (Ser10) phosphorylation ELISA, abrogation of camptothecin-induced G2 arrest (CHK-1 cellular assay); type: cell-based; conditions: Homo sapiens, camptothecin 8 hrs, then compound with nocodozole 16 hours
Procedure: The Histone H3 phosphorylation ELISA assay detects cells entering mitosis and represents the primary in vitro cell-based assay used to measure the cellular potency of compounds in abrogating the G2 check point induced by DNA damage in HeLa cells or MiaPaCa cells. The candidate substances were assayed for potency in their ability to inhibit camptothecin-induced G2 arrest, as measured by an increase in Histone H3 phosphorylation on Ser10, a marker of entry into mitosis.
The PathScan Phospho-Histone H3 (Ser10) Sandwich ELISA kit was used (Cell Signaling, #7155) and the assay was performed according to manufacturer recommendations. Tissue culture plates were seeded with HeLa cells or MiaPaCa Cells and allowed to attach overnight. The cells were then treated with camptothecin to induce DNA damage for 8 hrs. Candidate substances or diluent were then added in the presence of nocodozole for 16 hours. Cells were then lysed with buffer from Assay Designs (#80-1114) supplemented with protease inhibitors and frozen overnight. The fresh whole cell lysates were then thawed and added to the ELISA plate with shaking for 3 hours. Between all subsequent steps plates were washed 4 times with PBST. Biotinylated phospho Histone H3 (ser10) detection antibody was added for 1 hour, followed by addition of horseradish peroxidase-linked streptavidin secondary antibody for 1 hour. Color development of the antibody was performed with addition of TMB substrate and incubation for 2 minutes on a plate shaker. Stop solution was added and plates were read with absorbance at 450 nm on a spectrophotometer. EC50 values were calculated by sigmoid curve fitting using a four-parameter analysis.
Under the “Ki” column, data entries in the format of “%” are percent inhibition data where no Ki data is available. Data entry under the “EC50” column with an * are data obtained using Mia Paca-2 cells rather than HeLa cells. Data is not available where noted as n/a.

CHK1 (kinase domain) = molecular target: T1, CHK1 (kinase domain) (Homo sapiens, UniProt O14757); test: CHK1 Ki determination, spectrophotometric coupled (pyruvate kinase/lactate dehydrogenase) assay; type: biochemical; conditions: CHK-1 kinase domain; for Ki: 150 uM ATP, 125 uM Syntide 2
T1 construct: a solution containing 1 nM of CHK1 (kinase domain)
T1 sequence (O14757 9-265 limits assumed): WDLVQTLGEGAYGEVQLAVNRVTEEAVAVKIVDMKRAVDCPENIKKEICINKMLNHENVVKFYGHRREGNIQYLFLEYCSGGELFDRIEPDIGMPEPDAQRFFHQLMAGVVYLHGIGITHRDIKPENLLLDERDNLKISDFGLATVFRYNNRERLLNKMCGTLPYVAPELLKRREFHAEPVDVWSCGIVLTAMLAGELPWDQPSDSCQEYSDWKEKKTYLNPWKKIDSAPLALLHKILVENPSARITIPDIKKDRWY
Method in brief: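 Ki values, or % inhibition where no Ki was obtained, come from a tight-binding fit that uses active enzyme concentration and the ATP Km. Rates were followed as NADH loss at 340 nm, with ADP production coupled via pyruvate kinase and lactate dehydrogenase. Reactions with ATP (150 uM) and Syntide 2 (125 uM) were started after the CHK1 kinase domain had stood with inhibitor for 15 min.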

[1] = Mia Paca-2 cells (entries marked *)
[2] = MIA PaCa-2, Mia Paca-2 cells (entries marked *)

Compound `C[C@@H]1CNC[C@@H]1Nc1cncc(-c2cnc3cc(Cl)ccn23)n1` [Example 129, 6-(7-chloroimidazo[1,2-a]pyridin-3-yl)-N-[(3R,4R)-4-methylpyrrolidin-3-yl]pyrazin-2-amine] has an EC50 (Mia Paca-2 cells; [1]) of 0.0108 µM and a Ki (CHK1 (kinase domain)) of 0.000929 µM.

`FC[C@@H]1CNC[C@@H]1Nc1cncc(-c2cnc3ccccn23)n1` [Example 130, N-[(3R,4R)-4-(fluoromethyl)pyrrolidin-3-yl]-6-imidazo[1,2-a]pyridin-3-ylpyrazin-2-amine] was tested, and the EC50 (Mia Paca-2 cells; [1]) was 0.139 µM and the Ki (CHK1 (kinase domain)) was 0.00486 µM.

For `Cc1cn2c(-c3cncc(N[C@@H]4CCCNC4)n3)cnc2cn1` [Example 135, 6-(6-methylimidazo[1,2-a]pyrazin-3-yl)-N-[(3R)-piperidin-3-yl]pyrazin-2-amine], the EC50 (Mia Paca-2 cells; [1]) was 0.208 µM and the Ki (CHK1 (kinase domain)) was 0.0126 µM.

With `Oc1ccn2c(-c3cncc(N[C@@H]4CCCNC4)n3)cnc2c1` [Example 137, 3-{6-[(3R)-piperidin-3-ylamino]pyrazin-2-yl}imidazo[1,2-a]pyridin-7-ol] the EC50 (Mia Paca-2 cells; [2]) was 0.256 µM and the Ki (CHK1 (kinase domain)) was 0.0024 µM.

In the case of `COc1ccc2ncn(-c3cncc(N[C@@H]4CCCNC4)n3)c2c1` [Example 142, 6-(6-methoxy-1H-benzimidazol-1-yl)-N-[(3R)-piperidin-3-yl]pyrazin-2-amine], the EC50 (Mia Paca-2 cells; [1]) is reported as 0.125 µM and the Ki (CHK1 (kinase domain)) is reported as 0.00149 µM.

`C[C@@H]1C[C@@H](Nc2cncc(-c3cnc4ccccn34)n2)CN1` [Example 144, 6-imidazo[1,2-a]pyridin-3-yl-N-[(3R,5R)-5-methylpyrrolidin-3-yl]pyrazin-2-amine] gave an EC50 (Mia Paca-2 cells; [1]) of 0.167 µM and a Ki (CHK1 (kinase domain)) of 0.00318 µM.

In the case of `CC1(COc2ccn3c(-c4cncc(N[C@@H]5CCNC5)n4)cnc3c2)COC1` [Example 154, 6-{7-[(3-methyloxetan-3-yl)methoxy]imidazo[1,2-a]pyridin-3-yl}-N-[(3R)-pyrrolidin-3-yl]pyrazin-2-amine], the EC50 (Mia Paca-2 cells; [1]) is reported as 0.602 µM and the Ki (CHK1 (kinase domain)) is reported as 0.0039 µM.

`CC1(COc2ccn3c(-c4cncc(N[C@@H]5CCCNC5)n4)cnc3c2)COC1` [Example 155, 6-{7-[(3-methyloxetan-3-yl)methoxy]imidazo[1,2-a]pyridin-3-yl}-N-[(3R)-piperidin-3-yl]pyrazin-2-amine] showed an EC50 (Mia Paca-2 cells; [1]) of 0.0461 µM and a Ki (CHK1 (kinase domain)) of 0.001 µM.

`COC[C@@H]1C[C@@H](Nc2cncc(-c3cnc4ccccn34)n2)CN1` [Example 157, 6-(imidazo[1,2-a]pyridin-3-yl)-N-[(3R,5S)-5-(methoxymethyl)pyrrolidin-3-yl]pyrazin-2-amine] showed an EC50 (Mia Paca-2 cells; [1]) of 0.0733 µM and a Ki (CHK1 (kinase domain)) of 0.0217 µM.

For `CC(C)OC[C@@H]1C[C@@H](Nc2cncc(-c3cnc4ccccn34)n2)CN1` [Example 158, 6-(imidazo[1,2-a]pyridin-3-yl)-N-{(3R,5S)-5-[(propan-2-yloxy)methyl]pyrrolidin-3-yl}pyrazin-2-amine], the EC50 (Mia Paca-2 cells; [1]) was 0.129 µM and the Ki (CHK1 (kinase domain)) was 0.0498 µM.

`CC(C)c1cn2c(-c3cncc(N[C@@H]4CCCNC4)n3)cnc2s1` [Example 160, N-[(3R)-piperidin-3-yl]-6-[2-(propan-2-yl)imidazo[2,1-b][1,3]thiazol-5-yl]pyrazin-2-amine] gave an EC50 (Mia Paca-2 cells; [1]) of 0.0257 µM and a Ki (CHK1 (kinase domain)) of 0.00107 µM.

For `Cc1cn2c(-c3cncc(N[C@@H]4CCCN[C@@H]4C)n3)cnc2s1` [Example 161, 6-(2-methylimidazo[2,1-b][1,3]thiazol-5-yl)-N-[(2R,3R)-2-methylpiperidin-3-yl]pyrazin-2-amine], the EC50 (Mia Paca-2 cells; [1]) was 0.00566 µM and the Ki (CHK1 (kinase domain)) was 0.00147 µM.

With `C[C@H]1NCCC[C@H]1Nc1cncc(-c2cnc3cnccn23)n1` [Example 163, 6-(imidazo[1,2-a]pyrazin-3-yl)-N-[(2R,3R)-2-methylpiperidin-3-yl]pyrazin-2-amine] the EC50 (Mia Paca-2 cells; [1]) was 0.248 µM and the Ki (CHK1 (kinase domain)) was 0.014 µM.

Work on `C[C@@H]1CNC[C@@H]1Nc1cncc(-c2cnc3sccn23)n1` [Example 181, 6-(imidazo[2,1-b][1,3]thiazol-5-yl)-N-[(3R,4R)-4-methylpyrrolidin-3-yl]pyrazin-2-amine] yielded an EC50 (Mia Paca-2 cells; [1]) of 0.0261 µM and a Ki (CHK1 (kinase domain)) of 0.0072 µM.

In the case of `COC[C@@H]1C[C@@H](Nc2cncc(-c3cnc4cc(C#N)ccn34)n2)CN1` [Example 188, 3-(6-{[(3R,5S)-5-(methoxymethyl)pyrrolidin-3-yl]amino}pyrazin-2-yl)imidazo[1,2-a]pyridine-7-carbonitrile], the EC50 (Mia Paca-2 cells; [1]) is reported as 0.663 µM and the Ki (CHK1 (kinase domain)) is reported as 0.0578 µM.

In the case of `C[C@@H]1C[C@@H](Nc2cncc(-c3cnc4cc(C#N)ccn34)n2)CN1` [Example 189, 3-(6-{[(3R,5R)-5-methylpyrrolidin-3-yl]amino}pyrazin-2-yl)imidazo[1,2-a]pyridine-7-carbonitrile], the EC50 (Mia Paca-2 cells; [1]) is reported as 0.626 µM and the Ki (CHK1 (kinase domain)) is reported as 0.0179 µM.

`CCCOC[C@@H]1C[C@@H](Nc2cncc(-c3cnc4ccccn34)n2)CN1` [Example 192, 6-(imidazo[1,2-a]pyridin-3-yl)-N-[(3R,5S)-5-(propoxymethyl)pyrrolidin-3-yl]pyrazin-2-amine] gave an EC50 (Mia Paca-2 cells; [1]) of 0.187 µM and a Ki (CHK1 (kinase domain)) of 0.0292 µM.

`c1ccn2c(-c3cncc(N[C@H]4CNC[C@H]4C4CC4)n3)cnc2c1` [Example 197, N-[(3R,4R)-4-cyclopropylpyrrolidin-3-yl]-6-(imidazo[1,2-a]pyridin-3-yl)pyrazin-2-amine] was tested, and the EC50 (Mia Paca-2 cells; [1]) was 0.00482 µM and the Ki (CHK1 (kinase domain)) was 0.00305 µM.

For `Fc1cccn2ncc(-c3cncc(N[C@@H]4CCCNC4)n3)c12` [Example 199, 6-(4-fluoropyrazolo[1,5-a]pyridin-3-yl)-N-[(3R)-piperidin-3-yl]pyrazin-2-amine], the EC50 (Mia Paca-2 cells; [1]) was 0.106 µM and the Ki (CHK1 (kinase domain)) was 0.00782 µM.

For `C[C@@H]1CNC[C@@H]1Nc1cncc(-c2cnn3cccc(F)c23)n1` [Example 200, 6-(4-fluoropyrazolo[1,5-a]pyridin-3-yl)-N-[(3R,4R)-4-methylpyrrolidin-3-yl]pyrazin-2-amine], the EC50 (Mia Paca-2 cells; [1]) was 0.127 µM and the “percent inhibition (where no Ki data is available)” value (CHK1 (kinase domain); inhibitor concentration not given) was 26.1%^.

With `O[C@H]1CNC[C@H](Nc2cncc(-c3cnc4ccccn34)n2)C1` [Example 203, (3R,5R)-5-{[6-(imidazo[1,2-a]pyridin-3-yl)pyrazin-2-yl]amino}piperidin-3-ol] the EC50 (Mia Paca-2 cells; [2]) was 0.134 µM and the Ki (CHK1 (kinase domain)) was 0.00409 µM.

Compound `C[C@@H]1CCNC[C@@H]1Nc1cncc(-c2cnc3ccccn23)n1` [Example 204, 6-(imidazo[1,2-a]pyridin-3-yl)-N-[(3R,4R)-4-methylpiperidin-3-yl]pyrazin-2-amine] has an EC50 (Mia Paca-2 cells; [2]) of 0.0749 µM and a Ki (CHK1 (kinase domain)) of 0.0545 µM.

With `C[C@@H]1CCNC[C@@H]1Nc1cncc(-c2cnc3cc(Cl)ccn23)n1` [Example 205, 6-(7-chloroimidazo[1,2-a]pyridin-3-yl)-N-[(3R,4R)-4-methylpiperidin-3-yl]pyrazin-2-amine] the EC50 (Mia Paca-2 cells; [2]) was 0.0552 µM and the Ki (CHK1 (kinase domain)) was 0.0383 µM.

`C[C@@H]1CCNC[C@@H]1Nc1cncc(-c2cnn3ccccc23)n1` [Example 206, N-[(3R,4R)-4-methylpiperidin-3-yl]-6-(pyrazolo[1,5-a]pyridin-3-yl)pyrazin-2-amine] was tested, and the EC50 (Mia Paca-2 cells; [1]) was 0.24 µM and the Ki (CHK1 (kinase domain)) was 0.0482 µM.

Compound `COc1ccn2c(-c3cncc(N[C@H]4CNC[C@H]4C4CC4)n3)cnc2c1` [Example 211, N-[(3R,4R)-4-cyclopropylpyrrolidin-3-yl]-6-(7-methoxyimidazo[1,2-a]pyridin-3-yl)pyrazin-2-amine] has an EC50 (Mia Paca-2 cells; [2]) of 0.00459 µM and a Ki (CHK1 (kinase domain)) of 0.00254 µM.

Compound `CCOc1ccc2c(c1)ncn2-c1cncc(N[C@@H]2CCCNC2)n1` [Example 214, 6-(5-ethoxy-1H-benzimidazol-1-yl)-N-[(3R)-piperidin-3-yl]pyrazin-2-amine] has an EC50 (Mia Paca-2 cells; [1]) of 0.0122 µM and a Ki (CHK1 (kinase domain)) of 0.000935 µM.

`CCOc1ccc2c(c1)ncn2-c1cncc(N[C@@H]2CCNC2)n1` [Example 217, 6-(5-ethoxy-1H-benzimidazol-1-yl)-N-[(3R)-pyrrolidin-3-yl]pyrazin-2-amine] gave an EC50 (Mia Paca-2 cells; [1]) of 0.0364 µM and a Ki (CHK1 (kinase domain)) of 0.00699 µM.

For `C[C@@H]1NCCC[C@H]1Nc1cncc(-c2cnc3ccc(Cl)cn23)n1` [Example 225, 6-(6-chloroimidazo[1,2-a]pyridin-3-yl)-N-[(2S,3R)-2-methylpiperidin-3-yl]pyrazin-2-amine], the EC50 (Mia Paca-2 cells; [2]) was 0.0649 µM and the Ki (CHK1 (kinase domain)) was 0.0179 µM.

Compound `C[C@H]1NCCC[C@H]1Nc1cncc(-c2cnc3ccc(Cl)cn23)n1` [Example 226, 6-(6-chloroimidazo[1,2-a]pyridin-3-yl)-N-[(2R,3R)-2-methylpiperidin-3-yl]pyrazin-2-amine] has an EC50 (Mia Paca-2 cells; [2]) of 0.00717 µM and a Ki (CHK1 (kinase domain)) of 0.0046 µM.

With `C[C@@H]1NCCC[C@H]1Nc1cncc(-c2cnc3ccc(C(F)(F)F)cn23)n1` [Example 227, N-[(2S,3R)-2-methylpiperidin-3-yl]-6-[6-(trifluoromethyl)imidazo[1,2-a]pyridin-3-yl]pyrazin-2-amine] the EC50 (Mia Paca-2 cells; [2]) was 1 µM and the Ki (CHK1 (kinase domain)) was 0.092 µM.

Source: patent US8518952B2, “6 substituted 2-heterocyclylamino pyrazine compounds as CHK-1 inhibitors” (Pfizer Inc., priority 2008, dated 2013)
